# Reference: PubChem BioAssay (NCI)
#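 Dose response: 5 concentrations. Exposure: 48 h. Format: 96-well plates. Endpoint: linear interpolation; highest concentration if not reached. GI50: concentration for 50% inhibition of growth. TGI: total growth inhibition.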
# Columns and labels:
# Assay in all cases: growth of human tumour cells (NCI), 48 h
# [1] = tested on: ACHN renal
# [2] = tested on: SF-268 CNS
# [3] = tested on: EKVX NSCLC
# [4] = tested on: NCI-H460 lung
# [5] = tested on: HCC-2998 colon
# [6] = tested on: RXF 393 renal
# [7] = tested on: SN12C renal
# [8] = tested on: MDA-MB-468 breast
# [9] = tested on: OVCAR-3 ovarian
# [10] = tested on: MCF7 breast
# [11] = tested on: IGROV1 ovarian
# [12] = tested on: MDA-MB-435
# [13] = tested on: OVCAR-4 ovarian
# [14] = tested on: SF-295 CNS
# [15] = tested on: UACC-257 melanoma
# [16] = tested on: HOP-92 NSCLC
# [17] = tested on: T-47D breast
# [18] = tested on: SK-MEL-5 melanoma
# [19] = tested on: NCI-H23 lung
# [20] = tested on: PC-3 prostate
# [21] = tested on: SK-OV-3 ovarian
# [22] = tested on: 786-0 renal
# [23] = tested on: OVCAR-5 ovarian
# [24] = tested on: HT29 colon
# [25] = tested on: SW-620 colon
# [26] = tested on: M14 melanoma
# [27] = tested on: NCI/ADR-RES ovarian
# [28] = tested on: TK-10 renal
# [29] = tested on: HCT-116 colon
# [30] = tested on: K-562 leukemia
# [31] = tested on: HOP-62 NSCLC
# [32] = tested on: COLO 205 colon
# [33] = tested on: MOLT-4 leukemia
# [34] = tested on: SNB-75 CNS
# [35] = tested on: A549 NSCLC
# [36] = tested on: SF-539 CNS
# [37] = tested on: RPMI-8226 leukemia
# [38] = tested on: CCRF-CEM leukemia
# [39] = tested on: KM12 colon
# [40] = tested on: MDA-MB-231 breast
# [41] = tested on: BT-549 breast
# [42] = tested on: OVCAR-8 ovarian
# [43] = tested on: UACC-62 melanoma
# [44] = tested on: MALME-3M melanoma
# [45] = tested on: SK-MEL-28 melanoma
# [46] = tested on: HL-60(TB) leukemia
# [47] = tested on: SNB-19 CNS
# [48] = tested on: UO-31 renal
# [49] = tested on: U251 CNS
# [50] = tested on: A498 renal
# [51] = tested on: NCI-H226 lung
# [52] = tested on: NCI-H522 lung
# [53] = tested on: LOX IMVI melanoma
# [54] = tested on: SK-MEL-2 melanoma
# [55] = tested on: CAKI-1 renal
# [56] = tested on: DU-145 prostate
# [57] = tested on: HCT-15 colon
# [58] = tested on: HS 578T breast
structure (smiles),measurement,setting,value
COc1ccc(-c2nc3cc(C)ccc3n2CC(=O)N=Nc2c(O)[nH]c3ccc(Br)cc23)cc1,GI50,[1],2.38 µM
same,TGI,[1],8.75 µM
same,GI50,[2],2.94 µM
same,TGI,[2],31.7 µM
same,GI50,[3],2.1 µM
same,TGI,[3],11.2 µM
same,GI50,[4],1.86 µM
same,TGI,[4],4.1 µM
same,GI50,[5],2.75 µM
same,TGI,[5],16.4 µM
same,GI50,[6],1.33 µM
same,TGI,[6],3.54 µM
same,GI50,[7],2.16 µM
same,TGI,[7],10.6 µM
same,GI50,[8],1.88 µM
same,TGI,[8],4.41 µM
same,GI50,[9],1.93 µM
same,TGI,[9],4.29 µM
same,GI50,[10],2.23 µM
same,TGI,[10],10.2 µM
same,GI50,[11],2.93 µM
same,TGI,[11],18.2 µM
same,GI50,[12],2.12 µM
same,TGI,[12],7.52 µM
same,GI50,[13],2.76 µM
same,TGI,[13],11.2 µM
same,GI50,[14],2.93 µM
same,TGI,[14],14.2 µM
same,GI50,[15],1.95 µM
same,TGI,[15],6.33 µM
same,GI50,[16],1.34 µM
same,TGI,[16],4.59 µM
same,GI50,[17],2.85 µM
same,TGI,[17],34.6 µM
same,GI50,[18],2.59 µM
same,TGI,[18],8.3 µM
same,GI50,[19],1.93 µM
same,TGI,[19],5.88 µM
same,GI50,[20],2.07 µM
same,TGI,[20],14.5 µM
same,GI50,[21],3.92 µM
same,TGI,[21],38.3 µM
same,GI50,[22],3.48 µM
same,TGI,[22],16.6 µM
same,GI50,[23],2.56 µM
same,TGI,[23],13.6 µM
same,GI50,[24],1.98 µM
same,TGI,[24],4.36 µM
same,GI50,[25],2.4 µM
same,TGI,[25],9.15 µM
same,GI50,[26],1.6 µM
same,TGI,[26],3.49 µM
same,GI50,[27],1.88 µM
same,TGI,[27],5 µM
same,GI50,[28],3.63 µM
same,TGI,[28],20.6 µM
same,GI50,[29],1.88 µM
same,TGI,[29],4.49 µM
same,GI50,[30],3.66 µM
same,TGI,[30],> 84.5 µM
same,GI50,[31],2.31 µM
same,TGI,[31],9.66 µM
same,GI50,[32],2.29 µM
same,TGI,[32],8.06 µM
same,GI50,[33],3.22 µM
same,TGI,[33],44.5 µM
same,GI50,[34],1.61 µM
same,TGI,[34],12.7 µM
same,GI50,[35],1.75 µM
same,TGI,[35],3.95 µM
same,GI50,[36],1.55 µM
same,TGI,[36],3.36 µM
same,GI50,[37],2.98 µM
same,TGI,[37],42.2 µM
same,GI50,[38],3.05 µM
same,TGI,[38],32.1 µM
same,GI50,[39],2.81 µM
same,TGI,[39],16 µM
same,GI50,[40],2.17 µM
same,TGI,[40],7.97 µM
same,GI50,[41],2.05 µM
same,TGI,[41],5.92 µM
same,GI50,[42],1.58 µM
same,TGI,[42],3.49 µM
same,GI50,[43],1.78 µM
same,TGI,[43],6.09 µM
same,GI50,[44],1.59 µM
same,TGI,[44],3.2 µM
same,GI50,[45],1.51 µM
same,TGI,[45],2.96 µM
same,GI50,[46],5.51 µM
same,TGI,[46],> 84.5 µM
same,GI50,[47],3.14 µM
same,TGI,[47],49.6 µM
same,GI50,[48],19.4 µM
same,TGI,[48],> 84.5 µM
same,GI50,[49],1.64 µM
same,TGI,[49],3.55 µM
same,GI50,[50],24.9 µM
same,TGI,[50],60.1 µM
same,GI50,[51],1.97 µM
same,TGI,[51],7.23 µM
same,GI50,[52],7.39 µM
same,TGI,[52],31.1 µM
same,GI50,[53],1.48 µM
same,TGI,[53],3.29 µM
same,GI50,[54],3.28 µM
same,TGI,[54],18.6 µM
same,GI50,[55],3.6 µM
same,TGI,[55],29.1 µM
same,GI50,[56],3.29 µM
same,TGI,[56],16.1 µM
same,GI50,[57],2.83 µM
same,TGI,[57],16.9 µM
same,GI50,[58],1.96 µM
same,TGI,[58],6.44 µM
